Source: PubChem BioAssay (NCI)
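Step 1: Grow cells in 96-well plates. Step 2: Expose to compound for 48 hours at 5 concentrations. Step 3: Interpolate endpoints linearly; if unreached, use highest concentration. TGI: concentration producing complete growth inhibition.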

System: OVCAR-3 ovarian
Experiment: NCI-60 cell line screen, 48 h

Compound	TGI
COc1cc(C2c3cc4c(cc3OC(NN)C2C)OCO4)cc(OC)c1OC (stereo not drawn)	1.04 µM
CC1=C[C@@H]2Cc3nc4cc(Cl)ccc4c(N)c3[C@H](C1)C2	24.2 µM
COc1cc(NS(C)(=O)=O)ccc1Nc1cc(C)[nH]c2ccc3nccc3c12	> 100 µM

System: MALME-3M melanoma
Experiment: NCI-60 cell line screen, 48 h

Compound	TGI
COc1cc(C2c3cc4c(cc3OC(NN)C2C)OCO4)cc(OC)c1OC (stereo not drawn)	> 100 µM
CC1=C[C@@H]2Cc3nc4cc(Cl)ccc4c(N)c3[C@H](C1)C2	24.6 µM
CCN(CCCN(CC)C(=O)Nc1c(C)cccc1C)C(=O)Nc1c(C)cccc1C	> 100 µM

System: MDA-MB-435
Experiment: NCI-60 cell line screen, 48 h

Compound	TGI
CC1=C[C@@H]2Cc3nc4cc(Cl)ccc4c(N)c3[C@H](C1)C2	25.8 µM
COc1cc(NS(C)(=O)=O)ccc1Nc1cc(C)[nH]c2ccc3nccc3c12	> 100 µM
CCN(CCCN(CC)C(=O)Nc1c(C)cccc1C)C(=O)Nc1c(C)cccc1C	> 100 µM

System: CCRF-CEM leukemia
Experiment: NCI-60 cell line screen, 48 h

Compound	TGI
COc1cc(C2c3cc4c(cc3OC(NN)C2C)OCO4)cc(OC)c1OC (stereo not drawn)	> 93 µM
CC1=C[C@@H]2Cc3nc4cc(Cl)ccc4c(N)c3[C@H](C1)C2	74 µM

System: SK-OV-3 ovarian
Experiment: NCI-60 cell line screen, 48 h

Compound	TGI
COc1cc(C2c3cc4c(cc3OC(NN)C2C)OCO4)cc(OC)c1OC (stereo not drawn)	> 100 µM
CC1=C[C@@H]2Cc3nc4cc(Cl)ccc4c(N)c3[C@H](C1)C2	24.3 µM
CCN(CCCN(CC)C(=O)Nc1c(C)cccc1C)C(=O)Nc1c(C)cccc1C	> 100 µM

System: LOX IMVI melanoma
Experiment: NCI-60 cell line screen, 48 h

Compound	TGI
COc1cc(C2c3cc4c(cc3OC(NN)C2C)OCO4)cc(OC)c1OC (stereo not drawn)	> 100 µM
CC1=C[C@@H]2Cc3nc4cc(Cl)ccc4c(N)c3[C@H](C1)C2	22.3 µM
COc1cc(NS(C)(=O)=O)ccc1Nc1cc(C)[nH]c2ccc3nccc3c12	> 100 µM
CCN(CCCN(CC)C(=O)Nc1c(C)cccc1C)C(=O)Nc1c(C)cccc1C	> 100 µM

System: K-562 leukemia
Experiment: NCI-60 cell line screen, 48 h

Compound	TGI
COc1cc(C2c3cc4c(cc3OC(NN)C2C)OCO4)cc(OC)c1OC (stereo not drawn)	> 31.1 µM
CC1=C[C@@H]2Cc3nc4cc(Cl)ccc4c(N)c3[C@H](C1)C2	14.3 µM
COc1cc(NS(C)(=O)=O)ccc1Nc1cc(C)[nH]c2ccc3nccc3c12	> 100 µM
CCN(CCCN(CC)C(=O)Nc1c(C)cccc1C)C(=O)Nc1c(C)cccc1C	> 100 µM

System: A549 NSCLC
Experiment: NCI-60 cell line screen, 48 h

Compound	TGI
COc1cc(C2c3cc4c(cc3OC(NN)C2C)OCO4)cc(OC)c1OC (stereo not drawn)	> 100 µM
CC1=C[C@@H]2Cc3nc4cc(Cl)ccc4c(N)c3[C@H](C1)C2	34.9 µM
COc1cc(NS(C)(=O)=O)ccc1Nc1cc(C)[nH]c2ccc3nccc3c12	> 100 µM
CCN(CCCN(CC)C(=O)Nc1c(C)cccc1C)C(=O)Nc1c(C)cccc1C	> 100 µM

System: TK-10 renal
Experiment: NCI-60 cell line screen, 48 h

Compound	TGI
COc1cc(C2c3cc4c(cc3OC(NN)C2C)OCO4)cc(OC)c1OC (stereo not drawn)	> 100 µM
CC1=C[C@@H]2Cc3nc4cc(Cl)ccc4c(N)c3[C@H](C1)C2	19.5 µM
COc1cc(NS(C)(=O)=O)ccc1Nc1cc(C)[nH]c2ccc3nccc3c12	> 100 µM
CCN(CCCN(CC)C(=O)Nc1c(C)cccc1C)C(=O)Nc1c(C)cccc1C	> 100 µM

System: SF-295 CNS
Experiment: NCI-60 cell line screen, 48 h

Compound	TGI
COc1cc(C2c3cc4c(cc3OC(NN)C2C)OCO4)cc(OC)c1OC (stereo not drawn)	> 22.7 µM
CC1=C[C@@H]2Cc3nc4cc(Cl)ccc4c(N)c3[C@H](C1)C2	20 µM
COc1cc(NS(C)(=O)=O)ccc1Nc1cc(C)[nH]c2ccc3nccc3c12	> 100 µM
CCN(CCCN(CC)C(=O)Nc1c(C)cccc1C)C(=O)Nc1c(C)cccc1C	> 100 µM

System: SW-620 colon
Experiment: NCI-60 cell line screen, 48 h

Compound	TGI
COc1cc(C2c3cc4c(cc3OC(NN)C2C)OCO4)cc(OC)c1OC (stereo not drawn)	> 100 µM
CC1=C[C@@H]2Cc3nc4cc(Cl)ccc4c(N)c3[C@H](C1)C2	25.3 µM
COc1cc(NS(C)(=O)=O)ccc1Nc1cc(C)[nH]c2ccc3nccc3c12	> 100 µM
CCN(CCCN(CC)C(=O)Nc1c(C)cccc1C)C(=O)Nc1c(C)cccc1C	> 100 µM

System: SK-MEL-28 melanoma
Experiment: NCI-60 cell line screen, 48 h

Compound	TGI
COc1cc(C2c3cc4c(cc3OC(NN)C2C)OCO4)cc(OC)c1OC (stereo not drawn)	> 100 µM
CC1=C[C@@H]2Cc3nc4cc(Cl)ccc4c(N)c3[C@H](C1)C2	25.1 µM
COc1cc(NS(C)(=O)=O)ccc1Nc1cc(C)[nH]c2ccc3nccc3c12	> 100 µM
CCN(CCCN(CC)C(=O)Nc1c(C)cccc1C)C(=O)Nc1c(C)cccc1C	> 100 µM

System: HS 578T breast
Experiment: NCI-60 cell line screen, 48 h

Compound	TGI
COc1cc(C2c3cc4c(cc3OC(NN)C2C)OCO4)cc(OC)c1OC (stereo not drawn)	> 100 µM
CC1=C[C@@H]2Cc3nc4cc(Cl)ccc4c(N)c3[C@H](C1)C2	9.75 µM
COc1cc(NS(C)(=O)=O)ccc1Nc1cc(C)[nH]c2ccc3nccc3c12	> 100 µM
CCN(CCCN(CC)C(=O)Nc1c(C)cccc1C)C(=O)Nc1c(C)cccc1C	> 100 µM

System: NCI-H522 lung
Experiment: NCI-60 cell line screen, 48 h

Compound	TGI
COc1cc(C2c3cc4c(cc3OC(NN)C2C)OCO4)cc(OC)c1OC (stereo not drawn)	8.96 µM
COc1cc(NS(C)(=O)=O)ccc1Nc1cc(C)[nH]c2ccc3nccc3c12	> 100 µM
CCN(CCCN(CC)C(=O)Nc1c(C)cccc1C)C(=O)Nc1c(C)cccc1C	> 100 µM

System: OVCAR-8 ovarian
Experiment: NCI-60 cell line screen, 48 h

Compound	TGI
COc1cc(C2c3cc4c(cc3OC(NN)C2C)OCO4)cc(OC)c1OC (stereo not drawn)	> 100 µM
CC1=C[C@@H]2Cc3nc4cc(Cl)ccc4c(N)c3[C@H](C1)C2	38.9 µM
COc1cc(NS(C)(=O)=O)ccc1Nc1cc(C)[nH]c2ccc3nccc3c12	> 100 µM
CCN(CCCN(CC)C(=O)Nc1c(C)cccc1C)C(=O)Nc1c(C)cccc1C	> 100 µM

System: SF-268 CNS
Experiment: NCI-60 cell line screen, 48 h

Compound	TGI
COc1cc(C2c3cc4c(cc3OC(NN)C2C)OCO4)cc(OC)c1OC (stereo not drawn)	> 100 µM
CC1=C[C@@H]2Cc3nc4cc(Cl)ccc4c(N)c3[C@H](C1)C2	25.8 µM
COc1cc(NS(C)(=O)=O)ccc1Nc1cc(C)[nH]c2ccc3nccc3c12	> 100 µM
CCN(CCCN(CC)C(=O)Nc1c(C)cccc1C)C(=O)Nc1c(C)cccc1C	> 100 µM

System: T-47D breast
Experiment: NCI-60 cell line screen, 48 h

Compound	TGI
COc1cc(C2c3cc4c(cc3OC(NN)C2C)OCO4)cc(OC)c1OC (stereo not drawn)	> 100 µM
CC1=C[C@@H]2Cc3nc4cc(Cl)ccc4c(N)c3[C@H](C1)C2	37.4 µM
COc1cc(NS(C)(=O)=O)ccc1Nc1cc(C)[nH]c2ccc3nccc3c12	> 100 µM
CCN(CCCN(CC)C(=O)Nc1c(C)cccc1C)C(=O)Nc1c(C)cccc1C	> 100 µM

System: NCI-H460 lung
Experiment: NCI-60 cell line screen, 48 h

Compound	TGI
COc1cc(C2c3cc4c(cc3OC(NN)C2C)OCO4)cc(OC)c1OC (stereo not drawn)	> 100 µM
CC1=C[C@@H]2Cc3nc4cc(Cl)ccc4c(N)c3[C@H](C1)C2	23.1 µM
COc1cc(NS(C)(=O)=O)ccc1Nc1cc(C)[nH]c2ccc3nccc3c12	> 100 µM
CCN(CCCN(CC)C(=O)Nc1c(C)cccc1C)C(=O)Nc1c(C)cccc1C	> 100 µM

System: M14 melanoma
Experiment: NCI-60 cell line screen, 48 h

Compound	TGI
COc1cc(C2c3cc4c(cc3OC(NN)C2C)OCO4)cc(OC)c1OC (stereo not drawn)	> 100 µM
CC1=C[C@@H]2Cc3nc4cc(Cl)ccc4c(N)c3[C@H](C1)C2	18.1 µM
COc1cc(NS(C)(=O)=O)ccc1Nc1cc(C)[nH]c2ccc3nccc3c12	> 100 µM
CCN(CCCN(CC)C(=O)Nc1c(C)cccc1C)C(=O)Nc1c(C)cccc1C	> 100 µM

System: OVCAR-5 ovarian
Experiment: NCI-60 cell line screen, 48 h

Compound	TGI
COc1cc(C2c3cc4c(cc3OC(NN)C2C)OCO4)cc(OC)c1OC (stereo not drawn)	> 100 µM
CC1=C[C@@H]2Cc3nc4cc(Cl)ccc4c(N)c3[C@H](C1)C2	17.3 µM
COc1cc(NS(C)(=O)=O)ccc1Nc1cc(C)[nH]c2ccc3nccc3c12	> 100 µM
CCN(CCCN(CC)C(=O)Nc1c(C)cccc1C)C(=O)Nc1c(C)cccc1C	> 100 µM

System: MOLT-4 leukemia
Experiment: NCI-60 cell line screen, 48 h

Compound	TGI
COc1cc(C2c3cc4c(cc3OC(NN)C2C)OCO4)cc(OC)c1OC (stereo not drawn)	> 100 µM
CC1=C[C@@H]2Cc3nc4cc(Cl)ccc4c(N)c3[C@H](C1)C2	11.6 µM
CCN(CCCN(CC)C(=O)Nc1c(C)cccc1C)C(=O)Nc1c(C)cccc1C	> 100 µM

System: A498 renal
Experiment: NCI-60 cell line screen, 48 h

Compound	TGI
COc1cc(C2c3cc4c(cc3OC(NN)C2C)OCO4)cc(OC)c1OC (stereo not drawn)	0.709 µM
CC1=C[C@@H]2Cc3nc4cc(Cl)ccc4c(N)c3[C@H](C1)C2	23.4 µM
COc1cc(NS(C)(=O)=O)ccc1Nc1cc(C)[nH]c2ccc3nccc3c12	> 100 µM
CCN(CCCN(CC)C(=O)Nc1c(C)cccc1C)C(=O)Nc1c(C)cccc1C	> 100 µM

System: HCT-116 colon
Experiment: NCI-60 cell line screen, 48 h

Compound	TGI
COc1cc(C2c3cc4c(cc3OC(NN)C2C)OCO4)cc(OC)c1OC (stereo not drawn)	> 28.2 µM
CC1=C[C@@H]2Cc3nc4cc(Cl)ccc4c(N)c3[C@H](C1)C2	14.5 µM
COc1cc(NS(C)(=O)=O)ccc1Nc1cc(C)[nH]c2ccc3nccc3c12	> 100 µM
CCN(CCCN(CC)C(=O)Nc1c(C)cccc1C)C(=O)Nc1c(C)cccc1C	> 100 µM

System: HOP-62 NSCLC
Experiment: NCI-60 cell line screen, 48 h

Compound	TGI
COc1cc(C2c3cc4c(cc3OC(NN)C2C)OCO4)cc(OC)c1OC (stereo not drawn)	8.55 µM
CC1=C[C@@H]2Cc3nc4cc(Cl)ccc4c(N)c3[C@H](C1)C2	24 µM
COc1cc(NS(C)(=O)=O)ccc1Nc1cc(C)[nH]c2ccc3nccc3c12	> 100 µM
CCN(CCCN(CC)C(=O)Nc1c(C)cccc1C)C(=O)Nc1c(C)cccc1C	> 100 µM

System: CAKI-1 renal
Experiment: NCI-60 cell line screen, 48 h

Compound	TGI
COc1cc(C2c3cc4c(cc3OC(NN)C2C)OCO4)cc(OC)c1OC (stereo not drawn)	> 90.6 µM
CC1=C[C@@H]2Cc3nc4cc(Cl)ccc4c(N)c3[C@H](C1)C2	17.4 µM
COc1cc(NS(C)(=O)=O)ccc1Nc1cc(C)[nH]c2ccc3nccc3c12	> 100 µM
CCN(CCCN(CC)C(=O)Nc1c(C)cccc1C)C(=O)Nc1c(C)cccc1C	> 100 µM

System: OVCAR-4 ovarian
Experiment: NCI-60 cell line screen, 48 h

Compound	TGI
COc1cc(C2c3cc4c(cc3OC(NN)C2C)OCO4)cc(OC)c1OC (stereo not drawn)	> 100 µM
CC1=C[C@@H]2Cc3nc4cc(Cl)ccc4c(N)c3[C@H](C1)C2	18.2 µM
COc1cc(NS(C)(=O)=O)ccc1Nc1cc(C)[nH]c2ccc3nccc3c12	> 100 µM
CCN(CCCN(CC)C(=O)Nc1c(C)cccc1C)C(=O)Nc1c(C)cccc1C	> 100 µM

System: HL-60(TB) leukemia
Experiment: NCI-60 cell line screen, 48 h

Compound	TGI
COc1cc(C2c3cc4c(cc3OC(NN)C2C)OCO4)cc(OC)c1OC (stereo not drawn)	0.977 µM
CC1=C[C@@H]2Cc3nc4cc(Cl)ccc4c(N)c3[C@H](C1)C2	35.3 µM
COc1cc(NS(C)(=O)=O)ccc1Nc1cc(C)[nH]c2ccc3nccc3c12	> 100 µM

System: IGROV1 ovarian
Experiment: NCI-60 cell line screen, 48 h

Compound	TGI
COc1cc(C2c3cc4c(cc3OC(NN)C2C)OCO4)cc(OC)c1OC (stereo not drawn)	> 100 µM
CC1=C[C@@H]2Cc3nc4cc(Cl)ccc4c(N)c3[C@H](C1)C2	8.14 µM
COc1cc(NS(C)(=O)=O)ccc1Nc1cc(C)[nH]c2ccc3nccc3c12	> 100 µM
CCN(CCCN(CC)C(=O)Nc1c(C)cccc1C)C(=O)Nc1c(C)cccc1C	> 100 µM

System: MDA-MB-231 breast
Experiment: NCI-60 cell line screen, 48 h

Compound	TGI
COc1cc(C2c3cc4c(cc3OC(NN)C2C)OCO4)cc(OC)c1OC (stereo not drawn)	> 91.1 µM
CC1=C[C@@H]2Cc3nc4cc(Cl)ccc4c(N)c3[C@H](C1)C2	28.7 µM
COc1cc(NS(C)(=O)=O)ccc1Nc1cc(C)[nH]c2ccc3nccc3c12	> 100 µM
CCN(CCCN(CC)C(=O)Nc1c(C)cccc1C)C(=O)Nc1c(C)cccc1C	> 100 µM

System: U251 CNS
Experiment: NCI-60 cell line screen, 48 h

Compound	TGI
COc1cc(C2c3cc4c(cc3OC(NN)C2C)OCO4)cc(OC)c1OC (stereo not drawn)	16.2 µM
